Key:
[1] = test system: BSA endocytosis in bloodstream T. brucei; assay: Endocytosis assay: BSA-A647 uptake by bloodstream trypanosomes; type: cell-based, Trypanosoma brucei; details: bulk-phase uptake
[2] = test system: bloodstream form (BSF) CA427 trypanosomes; assay: Proliferation inhibition assay; type: cell-based, Trypanosoma brucei; details: axenic cultures of bloodstream trypanosomes, 48 h
[3] = test system: Tf endocytosis in HeLa cells; assay: HeLa cell endocytosis of transferrin; type: cell-based, human; details: each compound 10 μM, Tf-Alexa488 5 μg/mL, 15 min at 37 °C
rTbGSK3β = biological target: T1, rTbGSK3β (Trypanosoma brucei brucei, UniProt Q388M1); assay: biochemical
T1 sequence (Q388M1 1-352): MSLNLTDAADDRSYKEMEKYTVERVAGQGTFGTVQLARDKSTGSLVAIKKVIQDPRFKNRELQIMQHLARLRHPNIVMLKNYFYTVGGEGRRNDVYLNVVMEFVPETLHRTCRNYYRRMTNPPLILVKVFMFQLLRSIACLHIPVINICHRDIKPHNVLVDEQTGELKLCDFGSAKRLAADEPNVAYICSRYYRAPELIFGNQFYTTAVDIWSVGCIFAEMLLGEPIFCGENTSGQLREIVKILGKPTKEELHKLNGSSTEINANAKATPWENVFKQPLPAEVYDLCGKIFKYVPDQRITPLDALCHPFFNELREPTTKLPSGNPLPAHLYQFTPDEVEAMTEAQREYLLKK

[4] = test system: transferrin (Tf) endocytosis in bloodstream T. brucei; details: cited from earlier work
[5] = test system: transferrin (Tf) endocytosis in bloodstream T. brucei; type: cell-based, Trypanosoma brucei; details: Figure S1
[6] = test system: bloodstream form (BSF) CA427 trypanosomes; details: read-out: GI50 (concentration of drug that inhibits growth by 50%); trypanosome proliferation; cited from earlier work
[7] = test system: Hp-Hb endocytosis in bloodstream T. brucei; assay: Endocytosis assay: Hp-Hb-A488 uptake by bloodstream trypanosomes; type: cell-based, Trypanosoma brucei; details: Hp-Hb 38 nM
[8] = test system: Tf endocytosis in TbGSK3β overexpression trypanosomes; assay: Tf endocytosis in trypanosomes overexpressing TbGSK3β; type: cell-based, Trypanosoma brucei; details: clone 1, TWS119 10 μM, 3 h induction

| SMILES | Effect on BSA endocytosis [1] | T. brucei GL50 [2] | Effect on Tf endocytosis in HeLa cells [3] | further results |
| --- | --- | --- | --- | --- |
| O=C1Nc2ccc3ncsc3c2/C1=C/Nc1ccc(S(=O)(=O)Nc2ccccn2)cc1 [GW8510] | decreased | 0.12 µM | Neither TbGSK3β inhibitor affected | – |
| O=S(=O)(NCCNC/C=C/c1ccc(Br)cc1)c1cccc2cnccc12 [H-89] | – | – | decreased | – |
| Cc1cc(Nc2cc(CN3CCOCC3)c3nc(C)c(Cc4ccc(Cl)cc4F)n3n2)n[nH]1 [LY2784544] | – | 1.0 µM | – | IC50 (rTbGSK3β): 0.6 ± 0.2 µM |
| CS(=O)(=O)CCNCc1ccc(-c2ccc3ncnc(Nc4ccc(OCc5cccc(F)c5)c(Cl)c4)c3c2)o1 [Lapatinib] | – | – | – | Effect on Tf endocytosis in T. brucei ([4]; ref Guyett, P.J., et al., manuscript submitted): blocks |
| C[C@@H](Nc1ncnc2[nH]c(-c3ccc(O)cc3)cc12)c1ccccc1 [PKI-166] | did not inhibit | – | – | IC50 (rTbGSK3β): > 20 µM; Effect on Tf endocytosis [5]: did not inhibit; GI50 [6]: 5 µM |
| CNC(=O)c1cc(Oc2ccc(NC(=O)Nc3ccc(Cl)c(C(F)(F)F)c3)cc2)ccn1 [Sorafenib] | – | 3.1 µM | – | – |
| Nc1cccc(-c2cc3c(Oc4cccc(O)c4)ncnc3[nH]2)c1 [TWS119] | did not decrease | 1.1 µM | Neither TbGSK3β inhibitor affected | Effect on Hp-Hb endocytosis [7]: did not decrease; Reduction of Tf endocytosis driven by TbGSK3β overexpression [8]: 300% |
| N#C/C(=C\c1ccc(O)c(O)c1)C(N)=S [tyrphostin-A47] | – | – | – | Effect on Tf endocytosis in the parasite [4]: blocks |

Reference: paper PMC5025259 (ACS infectious diseases, 2016)
